Laboratory results: US20240360114A1 (SIRONAX LTD., priority 2021, published 2024)

Test system: HT-1080 cells
Assay: HT-1080 cell viability assay (ferroptosis induced by RSL3, Cell Titer-Glo)
Assay type: cell-based
Conditions: ferroptosis inducer RSL3, 20 hours, ferroptosis inhibitory activity, Table 3
Procedure, shortened: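 Cells seeded overnight, then co-treated with RSL3 and compound (3-fold, 10-point dilution, top 1.1 μM) for 20 hours. Viability by CellTiter-Glo luminescence, normalized to untreated controls; EC50 from sigmoidal non-linear regression.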

| SMILES | EC50 (Homo sapiens, HT-1080, 20 h) | EC50 |
| --- | --- | --- |
| Cc1cc(NC(C)(C)C)ccc1NC[C@H]1CC[C@H](N)CC1 [Compound 597, N^1-(((1r,4r)-4-aminocyclohexyl)methyl)-N^4-(tert-butyl)-2-methylbenzene-1,4-diamine] | 0.1 to 100 nM |  |
| Cc1nc(N2CC(C)OC(C(F)(F)F)C2)ccc1NC[C@H]1CC[C@@H](N)CC1 (stereo partly drawn) [Compound 598, N-(((1s,4s)-4-aminocyclohexyl)methyl)-2-methyl-6-(2-methyl-6-(trifluoromethyl)morpholino)pyridin-3-amine] | 0.1 to 100 nM |  |
| Cc1nc(N2CCC(C(C)(C)O)CC2)ccc1NC1CC2(CC(N)C2)C1 (stereo not drawn) [Compound 599] | 100 to 1000 nM |  |
| CC(=O)N1C(C)CN(c2ccc(NC3CC4(CC(N)C4)C3)c(C)n2)CC1C (stereo not drawn) [Compound 600] | 100 to 1000 nM |  |
| CN(C)c1ccc2cc(NC3CC4(CC(N)C4)C3)ccc2c1 (stereo not drawn) [Compound 601, N2-(6-aminospiro[3.3]heptan-2-yl)-N^6,N^6-dimethylnaphthalene-2,6-diamine] | 0.1 to 100 nM |  |
| Cc1nc(N2CCC(C)(C)CC2)ccc1NC1CC2(CC(N)C2)C1 (stereo not drawn) [Compound 602, N2-(6-(4,4-dimethylpiperidin-1-yl)-2-methylpyridin-3-yl)spiro[3.3]heptane-2,6-diamine] | 0.1 to 100 nM |  |
| Cc1nc(N2CCN(CC(F)(F)F)C(C)C2)ccc1NC1CC2(CC(NC(N)=O)C2)C1 (stereo not drawn) [Compound 603] | 0.1 to 100 nM |  |
| CC1CN(c2ccc(NC3CC(N)C3)cc2F)CC(C)N1CC(F)(F)F (stereo not drawn) [Compound 604, N1-(4-(3,5-dimethyl-4-(2,2,2-trifluoroethyl)piperazin-1-yl)-3-fluorophenyl)cyclobutane-1,3-diamine] | 0.1 to 100 nM |  |
| CNC1CC2(C1)CC(Nc1ccc(N3C[C@@H](C)O[C@@H](C)C3)nc1C)C2 (stereo partly drawn) [Compound 605, N^2-(6-((2R,6S)-2,6-dimethylmorpholino)-2-methylpyridin-3-yl)-N^6-methylspiro [3.3]heptane-2,6-diamine] | 0.1 to 100 nM |  |
| Cc1nc(N2CCN(C)C(C(F)(F)F)C2)ccc1NC1CC2(CC(N)C2)C1 (stereo not drawn) [Compound 606, N2-(2-methyl-6-(4-methyl-3-(trifluoromethyl)piperazin-1-yl)pyridin-3-yl)spiro[3.3]heptane-2,6-diamine] | 0.1 to 100 nM |  |
| CC(=O)N1CCN(CCNc2ccc(N3CC(C)OC(C)C3)nc2C)CC1 (stereo not drawn) [Compound 607, 1-(4-(2-((6-(2,6-dimethylmorpholino)-2-methylpyridin-3-yl)amino)ethyl)piperazin-1-yl)ethan-1-one] | 100 to 1000 nM |  |
| Cc1nc(N2CC[Si](C)(C)CC2)ccc1NC1CC(N)C1 (stereo not drawn) [Compound 608, N1-(6-(4,4-dimethyl-1,4-azasilinan-1-yl)-2-methylpyridin-3-yl)cyclobutane-1,3-diamine] | 0.1 to 100 nM |  |
| CCCc1nc(N2C[C@@H](C)O[C@@H](C)C2)ccc1NC1CC2(CC(N)C2)C1 (stereo partly drawn) [Compound 609, N2-(6-((2S, 6R)-2,6-dimethylmorpholino)-2-propylpyridin-3-yl)spiro[3.3]heptane-2,6-diamine] | 0.1 to 100 nM |  |
| CC1CN(c2ccc3cc(NC4CC5(CC(O)C5)C4)ccc3c2)CC(C)N1CC(F)(F)F (stereo not drawn) [Compound 610] | 0.1 to 100 nM |  |
| Cc1nc(N2CCN(C(=O)C(F)(F)F)C(C)C2)ccc1NC1CC2(CC(N)C2)C1 (stereo not drawn) [Compound 611, 1-(4-(5-((6-aminospiro[3.3]heptan-2-yl)amino)-6-methylpyridin-2-yl)-2-methylpiperazin-1-yl)-2,2,2-trifluoroethan-1-one] | 0.1 to 100 nM |  |
| Cc1cc(NC2CC(N)C2)ccc1N1CC(C)N(CC(F)(F)F)C(C)C1 (stereo not drawn) [Compound 612, N1-(4-(3,5-dimethyl-4-(2,2,2-trifluoroethyl)piperazin-1-yl)-3-methylphenyl)cyclobutane-1,3-diamine] | 0.1 to 100 nM |  |
| CC(C)c1nc(N2C[C@@H](C)O[C@@H](C)C2)ccc1NC1CC2(CC(N)C2)C1 (stereo partly drawn) [Compound 613, N^2-(6-((2S, 6R)-2,6-dimethylmorpholino)-2-isopropylpyridin-3-yl)spiro[3.3]heptane-2,6-diamine] | 0.1 to 100 nM |  |
| NC1CC2(C1)CC(Nc1ccc3cc(N4CCOCC4)ccc3c1)C2 (stereo not drawn) [Compound 614, N2-(6-morpholinonaphthalen-2-yl)spiro[3.3]heptane-2,6-diamine] | 0.1 to 100 nM |  |
| Cc1nc(N2CC[Si](C)(C)CC2)ccc1NC1CC2(C1)CC(C(N)=O)C2 (stereo not drawn) [Compound 615, 6-((6-(4,4-dimethyl-1,4-azasilinan-1-yl)-2-methylpyridin-3-yl)amino)spiro[3.3]heptane-2-carboxamide] | 0.1 to 100 nM |  |
| Cc1nc(N(C)CCNCC(F)(F)F)ccc1NC1CC2(CC(N)C2)C1 (stereo not drawn) [Compound 616, N^5-(6-aminospiro [3.3]heptan-2-yl)-N^2,6-dimethyl-N2-(2-((2,2,2-trifluoroethyl)amino)ethyl) pyridine-2,5-diamine] | 0.1 to 100 nM |  |
| Cc1nc(N2CCC(C)(C)CC2)ccc1NC[C@H]1CC[C@H](N)CC1 [Compound 617, N-(((1r,4r)-4-aminocyclohexyl)methyl)-6-(4,4-dimethylpiperidin-1-yl)-2-methylpyridin-3-amine] | 0.1 to 100 nM |  |

| SMILES | EC50 (Homo sapiens, HT-1080, 20 h) | EC50 |
| --- | --- | --- |
| CC[C@@H]1CN(c2ccc(N[C@H]3C[C@@H](N)C3)c(C)n2)C[C@H](C)O1 [Compound 618, (1s,3S)-N1-(6-((2R,6S)-2-ethyl-6-methylmorpholino)-2-methylpyridin-3-yl)cyclobutane-1,3-diamine] | 100 to 1000 nM |  |
| Cc1nc(N2CC(C)N(CC(F)(F)F)C(C)C2)ccc1NC1CC(N)C1 (stereo not drawn) [Compound 619] | 0.1 to 100 nM |  |
| NC1CC2(C1)CC(Nc1ccc3cc(N4CCC(O)(C(F)(F)F)CC4)ccc3c1)C2 (stereo not drawn) [Compound 620, 1-(6-((6-aminospiro[3.3]heptan-2-yl)amino)naphthalen-2-yl)-4-(trifluoromethyl)piperidin-4-ol] | 0.1 to 100 nM |  |
| Cc1nc(N2C[C@@H](C)O[C@@H](C)C2)ccc1NCC12C3C4C1C1C2C3C41CN (stereo partly drawn) [Compound 621, N-((4-(aminomethyl)cuban-1-yl)methyl)-6-((2S,6R)-2,6-dimethylmorpholino)-2-methylpyridin-3-amine] | 0.1 to 100 nM |  |
| Cc1cc(NC[C@H]2CC[C@H](N)CC2)ccc1NC(C)(C)C [Compound 622, N^4-(((1r,4r)-4-aminocyclohexyl)methyl)-N′-(tert-butyl)-2-methylbenzene-1,4-diamine] | 0.1 to 100 nM |  |
| Cc1nc(N2CCOC3(CC3)C2)ccc1NC1CC2(CC(N)C2)C1 (stereo not drawn) [Compound 623, N^2-(2-methyl-6-(4-oxa-7-azaspiro[2.5]octan-7-yl)pyridin-3-yl)spiro[3.3]heptane-2,6-diamine] | 0.1 to 100 nM |  |
| Cc1nc(N2CC(C)OC(C)C2)ccc1NC1CCC2(CC1)CC(N)C2 (stereo not drawn) [Compound 624, N^7-(6-(2,6-dimethylmorpholino)-2-methylpyridin-3-yl)spiro[3.5]nonane-2,7-diamine] | 0.1 to 100 nM |  |
| Cc1nc(N2CC[Si](C)(C)CC2)ccc1NC1CC2(CC(O)C2)C1 (stereo not drawn) [Compound 625, 6-((6-(4,4-dimethyl-1,4-azasilinan-1-yl)-2-methylpyridin-3-yl)amino)spiro[3.3]heptan-2-ol] | 0.1 to 100 nM |  |
| Cc1nc(N2CCOC3(CCC3)C2)ccc1NC1CC2(CC(N)C2)C1 (stereo not drawn) [Compound 626, N^2-(2-methyl-6-(5-oxa-8-azaspiro[3.5]nonan-8-yl)pyridin-3-yl)spiro[3.3]heptane-2,6-diamine] | 0.1 to 100 nM |  |
| Cc1nc(N2C[C@@H](C)O[C@@H](C)C2)ccc1NC12CCC(N)(CC1)C2 [Compound 627] | 100 to 1000 nM |  |
| Cc1cc(N2CC(C)(C)OC(C)(C)C2)ccc1NC1CC2(CC(N)C2)C1 (stereo not drawn) [Compound 628, N^2-(2-methyl-4-(2,2,6,6-tetramethylmorpholino)phenyl)spiro[3.3]heptane-2,6-diamine] | 0.1 to 100 nM |  |
| CC1CN(c2ccc3cc(NC4CC(N)C4)ccc3c2)CCO1 (stereo not drawn) [Compound 629, N^1-(6-(2-methylmorpholino)naphthalen-2-yl)cyclobutane-1,3-diamine] | 0.1 to 100 nM |  |
| CC1CN(c2ccc3cc(NC4CC(N)C4)ccc3c2)CCO1 (stereo not drawn) [Compound 630, N^1-(6-(2-methylmorpholino)naphthalen-2-yl)cyclobutane-1,3-diamine] |  | 0.1 to 100 nM |
| Cc1nc(N2C[C@@H](C)O[C@@H](C)C2)ccc1NC1CCCC(N)CCC1 (stereo partly drawn) [Compound 631, N1-(6-((2R,6S)-2,6-dimethylmorpholino)-2-methylpyridin-3-yl)cyclooctane-1,5-diamine] | 0.1 to 100 nM |  |
| CC1CN(c2ccc3cc(N[C@H]4CC[C@@H](C(N)=O)CC4)ccc3c2)CC(C)O1 (stereo partly drawn) [Compound 632, (1s,4s)-4-((6-(2,6-dimethylmorpholino)naphthalen-2-yl)amino)cyclohexane-1-carboxamide] | 0.1 to 100 nM |  |
| NC(=O)N1CCC(Nc2ccc3cc(N4CCC(C(F)(F)F)CC4)ccc3c2)CC1 [Compound 633, 4-((6-(4-(trifluoromethyl)piperidin-1-yl)naphthalen-2-yl)amino)piperidine-1-carboxamide] | 0.1 to 100 nM |  |
| Cc1cc(N2CC[Si](C)(C)CC2)ccc1NC1CC2(CC(N)C2)C1 (stereo not drawn) [Compound 634, N2-(4-(4.4-dimethyl-1,4-azasilinan-1-yl)-2-methylphenyl)spiro[3.3]heptane-2,6-diamine] | 0.1 to 100 nM |  |
| CCc1nc(N2CC(C)N(CC(F)(F)F)C(C)C2)c(F)cc1NC1CC(N)C1 (stereo not drawn) [Compound 635, N1-(6-(3,5-dimethyl-4-(2,2,2-trifluoroethyl)piperazin-1-yl)-2-ethyl-5-fluoropyridin-3-yl)cyclobutane-1,3-diamine] | 0.1 to 100 nM |  |
| Cc1cc(N2CC(C)N(CC(F)(F)F)C(C)C2)ccc1NC1CC2(CC(N)C2)C1 (stereo not drawn) [Compound 636, N2-(4-(3,5-dimethyl-4-(2,2,2-trifluoroethyl)piperazin-1-yl)-2-methylphenyl)spiro[3.3]heptane-2,6-diamine] | 0.1 to 100 nM |  |
| C[C@@H]1CN(c2ccc(NC3CC4(CC(N)C4)C3)c(OC(F)F)n2)C[C@H](C)O1 (stereo partly drawn) [Compound 637, N^2-(2-(difluoromethoxy)-6-((25,6R)-2,6-dimethylmorpholino)pyridin-3-yl)spiro[3.3]heptane-2,6-diamine] | 0.1 to 100 nM |  |
| Cc1nc(N2CC[Si](C)(C)CC2)c(F)cc1NC1CC2(CC(N)C2)C1 (stereo not drawn) [Compound 638, N^2-(6-(4,4-dimethyl-1,4-azasilinan-1-yl)-5-fluoro-2-methylpyridin-3-yl)spiro[3.3]heptane-2,6-diamine] | 0.1 to 100 nM |  |
